These results are taken from publication PMC3998711 (Nature chemical biology, 2014).

Assay [1] has as its system c-Myc. The experiment in a line: Western blot analysis of cellular c-Myc levels in MM.1S cells. In kind it is cell-based, human. To be noted: 6 h; for IC50: Homo sapiens, MM1.S, read-out: IC50 for c-Myc suppression; for c-Myc levels (western blot): MM.1S cells, inhibitor 5 μM. Background: Immunoblotting shows a protein as a band on a membrane.
For a further assay, the system named is PLK family. Kind of assay: Kinome-wide profiling, PLK family.
The target in assay [2] is first bromodomain of BRD4, BRD4(1) (Homo sapiens, UniProt O60885). The experiment in a line: AlphaScreen assay. In kind it is binding. As to conditions: described in words. A general note: In Alpha technology, singlet oxygen from a donor bead excites a nearby acceptor bead.
A further assay deals with RSK family kinase. The experiment in a line: Kinome-wide profiling, RSK family. To be noted: read-out: Kds, RSK family; kinome-wide data.
A further assay deals with BRD4(1) (Homo sapiens, UniProt O60885). The experiment in a line: Isothermal titration calorimetry. As to conditions: ITC, 15 °C, 50 mM HEPES, 150 mM NaCl. It counts as binding.
The next assay concerns MV4-11 AML cells. The experiment in a line: MV4-11 proliferation assay. As to conditions: read-out: IC50, proliferation of MV4-11 AML cells. It counts as cell-based, human.
Assay [3] relates to c-Myc. Kind of assay: Western blot of c-Myc levels in Molm14 cell lines. It counts as cell-based, human. To be noted: FLT3 inhibitor-sensitive and -resistant lines, 6 h.
Assay [4] has as its system 12 primary human cell-based BioMAP systems. The experiment in a line: BioMAP primary human cell disease model assay systems.
The subject of assay [5] is MM.1S multiple myeloma cells. The experiment in a line: MM.1S proliferation assay. In kind it is cell-based. To be noted: Homo sapiens, MM1.S, 72 h, read-out: IC50, MM.1S proliferation.

Read-outs that look alike come from different tables or passages of the source.

`CC[C@@H]1C(=O)N(C)c2cnc(Nc3ccc(C(=O)NC4CCN(C)CC4)cc3OC)nc2N1C1CCCC1` [BI-2536]: in the assay on c-Myc [1], the IC50 is approximately 100 nM and the “c-Myc levels (western blot)” value is reported as “strong c-Myc down regulation”.
In the case of `CC(C)CCN1c2nc(Nc3cc(F)c(O)c(F)c3)ncc2N(C)C(=O)C1C` (stereo not shown) [BI-D1870], the “PLK family potencies lower than for BI-2536” value in the assay on PLK family is given as 10–100 fold. Besides, the Kd is approximately 10 nM on PLK family (read-out: Kds, PLK family, kinome-wide data); 10 to 100 nM at RSK family kinase; 3500 ± 170 nM on BRD4(1). Also, in assay [2], the “AlphaScreen dose response IC50” value is reported as “nanomolar”.
For `C[C@@H](Oc1cc(-n2cnc3ccc(CN4CCN(C)CC4)cc32)sc1C(N)=O)c1ccccc1C(F)(F)F` [GSK-461364A], in the assay with c-Myc [1], the “c-Myc levels (western blot)” value is “did not affect c-Myc levels”.
For the molecule `COc1cc2c(cc1-c1c(C)noc1C)ncc1[nH]c(=O)n([C@H](C)c3ccccn3)c12` [I-BET], in the assay on MV4-11 AML cells (72 h), the IC50 is 200 nM.
`Cc1sc2c(c1C)C(c1ccc(Cl)cc1)=N[C@@H](CC(=O)OC(C)(C)C)c1nnc(C)n1-2` [JQ1]: the “c-Myc expression in Molm14 cell lines” value in the assay on c-Myc [3] is listed as “inhibits c-Myc expression with similar potencies”. In addition, the IC50 in the assay with MV4-11 AML cells (72 h) came out at 28 nM.
The molecule `CN(c1ccccc1CNc1nc(Nc2ccc3c(c2)CC(=O)N3)ncc1C(F)(F)F)S(C)(=O)=O` [PF-431396] gave a Kd at BRD4(1) (error of the fit) of 445 ± 42 nM.
`Cc1cnc(Nc2ccc(OCCN3CCCC3)cc2)nc1Nc1cccc(S(=O)(=O)NC(C)(C)C)c1` [TG-101348]: the “production of TNFα, MIG and IL-8” value in assay [4] is “inhibited”. In the assay with c-Myc [1], the IC50 is 1000 to 3000 nM and the “c-Myc levels (western blot)” value is reported as “strong c-Myc down regulation”. In addition, in assay [5], the IC50 lay in the range of 1000 to 3000 nM.
Take `N#CC[C@H](C1CCCC1)n1cc(-c2ncnc3[nH]ccc23)cn1` [ruxolitinib]: the “c-Myc levels (western blot)” value in the assay with c-Myc [1] was “did not affect c-Myc levels”. Besides, in the assay on MV4-11 AML cells (Homo sapiens, MV4-11, 72 h), the IC50 is approximately 10000 nM.
On to `C[C@@H]1CCN(C(=O)CC#N)C[C@@H]1N(C)c1ncnc2[nH]ccc12` [tofacitinib], for which the “c-Myc levels (western blot)” value in the assay with c-Myc [1] is on record as “did not affect c-Myc levels”.
